Results published in patent publication US11136321B2, “Tricyclic compounds” (ALIGOS THERAPEUTICS, INC., priority 2019, dated 2021).
pEC50: −log10 of the molar value.

tested on: HBV; assay: HBV-DNA antiviral assay using HepG2.117 cells; type: cell-based, genotype D HBV; conditions: Hepatitis B virus, 72 h, intracellular HBV DNA by qPCR, 3 days incubation
Method: The following assay procedure describes the HBV antiviral assay, using HepG2.117 cells, which carry a stably integrated genotype D HBV genome under the control of a Tet-off promoter, and intracellular HBV DNA quantification as endpoint. Cell viability is assessed in parallel by measuring the intracellular ATP content using ATPlite (Perkin Elmer).
On day 0, HepG2.117 cells (which are maintained in routine cell culture with doxycycline present in the medium at a final concentration of 1 μg/mL) were seeded in 96-well plates (white with clear bottom) at a density of 2.0×10^4 cells/well (0.1 mL/well) in medium without doxycycline to induce pgRNA transcription and subsequent formation of HBV particles. The cells were incubated at 37° C. and 5% CO2.
On day 1, medium was removed from each well, the test articles were diluted in culture medium without doxcycyline and 100 μL was added to cell culture wells (9 concentrations, 4-fold dilution). For each plate, 6 untreated (merely DMSO) wells were included. The final concentration of DMSO in the culture medium was 2%. Each plate was prepared in duplicate (one for HBV DNA extraction, one for ATPlite measurement). The cells were incubated at 37° C. and 5% CO2 for 3 days.
On day 4, cell viability was assessed using ATPlite and cell lysates were prepared for HBV DNA extraction and subsequent quantification by qPCR.
Medium was removed from each well and 100 μL of 0.33% NP-40 in H2O was added to each well. Plates were sealed, incubated at 4° C. for 5 mins, vortexed extensively and centrifuged briefly. Next, 35 μL of lysate was added to 65 μL QuickExtract DNA Extraction Solution (Epicentre) in a PCR plate for each well. PCR plate was incubated at 65° C. for 6 mins, 98° C. for 2 mins and finally cooled to 4° C. HBV DNA was then quantified by qPCR with HBV-specific primers and probes as specified in Table 1 using the Bio-Rad SSOAdvanced Universal Probes Supermix on a CFX96 machine (Bio-Rad). The PCR cycle program consisted of 95° C. for 3 mins, followed by 40 cycles at 95° C. for 10 sec and 60° C. for 30 sec.
A DNA standard was prepared by dilution of an IDT gBlock corresponding to the amplicon with concentrations ranging from 10^2 to 10^8 copies/input (i.e. per 4 μL) and used to generate a standard curve by plotting Cq values vs. HBV DNA standard concentration. The quantity of HBV DNA in each sample was determined by interpolating from the standard curve.
Cell viability was calculated as follows: % Cell viability=(luminescence value of test sample)/(average luminescence value of 2% DMSO control)×100%. HBV DNA inhibition was calculated as follows: 100−(HBV DNA copy number of test sample)/(average HBV DNA copy number of 2% DMSO control)×100%. No normalization to entecavir was required due to the excellent dynamic window of this assay. The CC50, EC50 and EC90 values were determined by dose-response curves fitted by GraphPad Prism using “log (agonist) vs. response—Variable slope”.

SMILES | pEC50
CNC(=O)c1ccc(-n2c(=O)c3c(n4ncc(NCc5ccc(C#N)cc5)c24)CN(C(=O)c2ccc(Br)c(Cl)c2)CC3)cc1 [Compound 55, 4-[12-(4-bromo-3-chloro-benzoyl)-5-[(4-cyanophenyl)methylamino]-8-oxo-2,3,7,12-tetrazatricyclo [7.4.0.0 2,6]trideca-1(9),3,5-trien-7-yl]-N-methyl-benzamide] | 6.30 to 7.00
CNC(=O)c1ccc(-n2c(=O)c3c(n4ncc(NCc5ccccc5F)c24)CN(C(=O)c2ccc(Br)c(Cl)c2)CC3)cc1 [Compound 66, 4-[12-(4-bromo-3-chloro-benzoyl)-5-[(2-fluorophenyl)methylamino]-8-oxo-2,3,7,12-tetrazatricyclo [7.4.0.0 2,6]trideca-1(9),3,5-trien-7-yl]-N-methyl-benzamide] | ≥ 7.00
CNC(=O)c1ccc(-n2c(=O)c3c(n4ncc(Cc5ccccc5)c24)CN(C(=O)c2ccc(Cl)c(Cl)c2)CC3)cc1 [Compound 34, 4-[5-benzyl-12-(3,4-dichlorobenzoyl)-8-oxo-2,3,7,12-tetrazatricyclo [7.4.0.0 2,6]trideca-1(9),3,5-trien-7-yl]-N-methyl-benzamide] | ≥ 7.00
CNC(=O)c1ccc(-n2c(=O)c3c(n4ncc(Nc5ccc(F)cc5)c24)CN(C(=O)c2ccc(Br)c(Cl)c2)CC3)cc1 [Compound 54, 4-[12-(4-bromo-3-chloro-benzoyl)-5-(4-fluoroanilino)-8-oxo-2,3,7,12-tetrazatricyclo [7.4.0.0 2,6]trideca-1(9),3,5-trien-7-yl]-N-methyl-benzamide] | ≥ 7.00
COc1ccc(-n2c(=O)c3c(n4ncc(NC(=O)Cc5ccccc5)c24)CN(C(=O)c2ccc(Cl)c(Cl)c2)CC3)cc1 [Compound 23, N-[12-(3,4-dichlorobenzoyl)-7-(4-methoxyphenyl)-8-oxo-2,3,7,12-tetrazatricyclo [7.4.0.0 2,6]trideca-1(9),3,5-trien-5-yl]-2-phenyl-acetamide] | 5.30 to 6.30
Cc1cnn2c3c(c(=O)n(-c4ccccc4)c12)CCN(C(=O)c1ccc(Br)c(F)c1)C3 [Compound 8, 12-(4-bromo-3-fluorobenzoyl)-5-methyl-7-phenyl-2,3,7,12-tetraazatricyclo[7.4.0.0^[2,6]]trideca-1(9),3,5-trien-8-one] | 5.30 to 6.30
CNC(=O)c1ccc(-n2c(=O)c3c(n4ncc(Cc5ccc(OC)cc5F)c24)CN(C(=O)c2ccc(Br)c(Cl)c2)CC3)cc1 [Compound 87, 4-[12-(4-bromo-3-chloro-benzoyl)-5-[(2-fluoro-4-methoxy-phenyl)methyl]-8-oxo-2,3,7,12-tetrazatricyclo [7.4.0.0 2,6]trideca-1(9),3,5-trien-7-yl]-N-methyl-benzamide] | ≥ 7.00
CNC(=O)c1ccc(-n2c(=O)c3c(n4ncc(NCc5ccc(OCC(N)=O)cc5)c24)CN(C(=O)c2ccc(Br)c(Cl)c2)CC3)cc1 [Compound 52, 4-[5-[[4-(2-amino-2-oxo-ethoxy)phenyl]methylamino]-12-(4-bromo-3-chloro-benzoyl)-8-oxo-2,3,7,12-tetrazatricyclo [7.4.0.0 2,6]trideca-1(9),3,5-trien-7-yl]-N-methyl-benzamide] | 6.30 to 7.00
COc1ccc(-n2c(=O)c3c(n4ncc(NS(=O)(=O)c5ccccc5)c24)CN(C(=O)c2ccc(Br)c(Cl)c2)CC3)cc1 [Compound 31, N-[12-(4-bromo-3-chloro-benzoyl)-7-(4-methoxyphenyl)-8-oxo-2,3,7,12-tetrazatricyclo [7.4.0.0 2,6]trideca-1(9),3,5-trien-5-yl] benzenesulfonamide] | ≥ 7.00
CNC(=O)c1ccc(-n2c(=O)c3c(n4ncc(NCc5ccc(OCC(N)=O)cc5)c24)CN(C(=O)c2ccc(Cl)c(Cl)c2)CC3)cc1 [Compound 53, 4-[5-[[4-(2-amino-2-oxo-ethoxy)phenyl]methylamino]-12-(3,4-dichlorobenzoyl)-8-oxo-2,3,7,12-tetrazatricyclo [7.4.0.0 2,6]trideca-1(9),3,5-trien-7-yl]-N-methyl-benzamide] | 5.30 to 6.30
O=C(c1ccc(Br)c(F)c1)N1CCc2c(n3ncc(Cc4ccccc4)c3n(-c3ccccc3)c2=O)C1 [Compound 9, 5-benzyl-12-(4-bromo-3-fluorobenzoyl)-7-phenyl-2,3,7,12-tetraazatricyclo[7.4.0.0^[2,6]]trideca-1(9),3,5-trien-8-one] | 6.30 to 7.00
N#Cc1cc(C(=O)N2CCc3c(n4ncc(Cc5ccccc5)c4n(-c4ccc(C(N)=O)cc4)c3=O)C2)ccc1Br [Compound 82, 4-[5-benzyl-12-(4-bromo-3-cyano-benzoyl)-8-oxo-2,3,7,12-tetrazatricyclo [7.4.0.0 2,6]trideca-1(9),3,5-trien-7-yl] benzamide] | < 5.30
CNC(=O)c1ccc(-n2c(=O)c3c(n4ncc(Cc5ccccc5)c24)CN(C(=O)c2ccc(Br)c(Cl)c2)CC3)cc1Cl [Compound 38, 4-[5-benzyl-12-(4-bromo-3-chloro-benzoyl)-8-oxo-2,3,7,12-tetrazatricyclo [7.4.0.0 2,6]trideca-1(9),3,5-trien-7-yl]-2-chloro-N-methyl-benzamide] | ≥ 7.00
O=C(Nc1ccc(F)c(Cl)c1)N1CCc2c(n3nccc3n(Cc3ccccc3)c2=O)C1 [Compound 2, 4-benzyl-N-(3-chloro-4-fluorophenyl)-5-oxo-5,6,7,9-tetrahydropyrazolo[1,5-a]pyrido[4,3-e]pyrimidine-8(4H)-carboxamide] | 5.30 to 6.30
CNC(=O)c1ccc(-n2c(=O)c3c(n4ncc([C@@H](C)c5ccccc5)c24)CN(C(=O)c2ccc(Br)c(C#N)c2)CC3)cc1 (stereo in doubt) [Compound 58, 4-[12-(4-bromo-3-cyano-benzoyl)-8-oxo-5-[rac-(1S)-1-phenylethyl]-2,3,7,12-tetrazatricyclo [7.4.0.0 2,6]trideca-1(9),3,5-trien-7-yl]-N-methyl-benzamide] | ≥ 7.00
N#Cc1cc(C(=O)N2CCc3c(n4ncc(Cc5ccccc5)c4n(-c4ccc(-c5ncc[nH]5)cc4)c3=O)C2)ccc1Br [Compound 73, 5-[5-benzyl-7-[4-(1H-imidazol-2-yl)phenyl]-8-oxo-2,3,7,12-tetrazatricyclo [7.4.0.0 2,6]trideca-1(9),3,5-triene-12-carbonyl]-2-bromo-benzonitrile] | 5.30 to 6.30

same assay, conditions: intracellular HBV DNA by qPCR, 3 days incubation

SMILES | pEC50
CNC(=O)c1ccc(-n2c(=O)c3c(n4ncc(Cc5ccccc5)c24)CN(C(=O)c2ccc(Br)c(Cl)c2)CC3)cc1 [Compound 29, 4-[5-benzyl-12-(4-bromo-3-chlorobenzoyl)-8-oxo-2,3,7,12-tetraazatricyclo[7.4.0.0^[2,6]]trideca-1(9),3,5-trien-7-yl]-N-methylbenzamide] | ≥ 7.00
CNC(=O)c1ccc(-n2c(=O)c3c(n4ncc(Cc5ccccc5)c24)CN(C(=O)c2ccc(Br)c(Cl)c2)C(C)C3)cc1 (single isomer, unassigned) [Compound 71, 4-[(11R*)-5-benzyl-12-(4-bromo-3-chlorobenzoyl)-11-methyl-8-oxo-2,3,7,12-tetraazatricyclo[7.4.0.0^[2,6]]trideca-1(9),3,5-trien-7-yl]-N-methylbenzamide] | ≥ 7.00
CNC(=O)c1ccc(-n2c(=O)c3c(n4ncc(Cc5ccccc5)c24)CN(C(=O)c2ccc(Br)c(Cl)c2)C(C)C3)cc1 (single isomer, unassigned) [Compound 72, 4-[(11S*)-5-benzyl-12-(4-bromo-3-chlorobenzoyl)-11-methyl-8-oxo-2,3,7,12-tetraazatricyclo[7.4.0.0^[2,6]]trideca-1(9),3,5-trien-7-yl]-N-methylbenzamide] | ≥ 7.00
